Assay results reported in patent US12630602B2, “Methods and compositions for treating diseases and disorders of the nervous system” (Rutgers, The State University of New Jersey, priority 2016, dated 2026).

System: retinal cells expressing the inhibitory hM4Di DREADD
Experiment: Electroretinography (ERG) after CNO in rats expressing hM4Di DREADD in retina
Format: in vivo

SMILES: C[N+]1([O-])CCN(C2=Nc3cc(Cl)ccc3Nc3ccccc32)CC1 [CNO, clozapine N-oxide]
- ERG wave (CNO by intraperitoneal injection, 20 minutes after, rats with AAV-hSyn-hM4Di (FIG. 2C)): inhibition of the ERG wave
- ERG, function in retinal cells (CNO eye drops, 10 minutes and 20 minutes after, rats with AAV-hSyn-hM4Di (FIG. 2D)): decreased function in retinal cells at both timepoints
- eliciting DREADD function, eye drops versus systemic delivery (ERG, CNO via eye drops compared with systemic delivery): at least as successful
